From patent US4297486A, “Aminoglycoside antibiotic G-367-1 and method for the production thereof” (Toyo Jozo Kabushiki Kaisha, priority 1979, dated 1981)
Values after ≈ are worked out from the molar mass of the structure shown.

Columns and labels:
[1] = system: Gram negative bacteria; test: antibacterial effect against Gram negative bacteria; format: cell-based
From the text: (§1) The antimicrobial spectrum (minimum inhibitory concentration, MIC) of G-367-1 by agar dilution method is as follows: […]

[2] = system: Pseudomonas aeruginosa ML4561 Rms164-1; test: antimicrobial spectrum, MIC by agar dilution method; format: cell-based; settings: ML4561RMS1641, read-out: minimum inhibitory concentration, MIC
From the text: as §1

[3] = system: Proteus morganii 0239; test: as above; format: cell-based; settings: Morganella morganii, read-out: minimum inhibitory concentration, MIC
From the text: as §1

[4] = system: Pseudomonas aeruginosa 2512; test: as above; format: cell-based; settings: read-out: minimum inhibitory concentration, MIC
From the text: as §1

[5] = system: Escheria coli W3630; test: as above; format: cell-based; settings: read-out: minimum inhibitory concentration, MIC
From the text: as §1

[6] = system: Pseudomonas putida 1842; test: as above; format: cell-based; settings: read-out: minimum inhibitory concentration, MIC
From the text: as §1

[7] = system: Pseudomonas aeruginosa ML4561 RP4; test: as above; format: cell-based; settings: ML4561RP4, read-out: minimum inhibitory concentration, MIC
From the text: as §1

[8] = system: Staphylococcus aureus ATCC 6538P; test: as above; format: cell-based; settings: ATCC6538P, read-out: minimum inhibitory concentration, MIC
From the text: as §1

[9] = system: Staphylococcus aureus 0119; test: as above; format: cell-based; settings: read-out: minimum inhibitory concentration, MIC
From the text: as §1

[10] = system: Pseudomonas aeruginosa IAM1095; test: as above; format: cell-based; settings: read-out: minimum inhibitory concentration, MIC
From the text: as §1

[11] = system: Citrobacter freundii GN346; test: as above; format: cell-based; settings: read-out: minimum inhibitory concentration, MIC
From the text: as §1

[12] = system: Pseudomonas aeruginosa ML4561; test: as above; format: cell-based; settings: read-out: minimum inhibitory concentration, MIC
From the text: as §1

[13] = system: Klebsiella pneunonia ATCC 10031; test: as above; format: cell-based; settings: ATCC10031, read-out: minimum inhibitory concentration, MIC
From the text: as §1

[14] = system: Pseudomonas aeruginosa ML4561 Rms166; test: as above; format: cell-based; settings: ML4561RMS166, read-out: minimum inhibitory concentration, MIC
From the text: as §1

[15] = system: Enterobacter aerogenes 0655; test: as above; format: cell-based; settings: Klebsiella aerogenes, read-out: minimum inhibitory concentration, MIC
From the text: as §1

[16] = system: Bacillus subtilis ATCC 6633; test: as above; format: cell-based; settings: ATCC6633, read-out: minimum inhibitory concentration, MIC
From the text: as §1

[17] = system: Staphylococcus epidermidis sp-al-1; test: as above; format: cell-based; settings: SPAL1, read-out: minimum inhibitory concentration, MIC
From the text: as §1

[18] = system: Proteus rettgeri ACR; test: as above; format: cell-based; settings: Providencia rettgeri, read-out: minimum inhibitory concentration, MIC
From the text: as §1

[19] = system: Streptococcus pyogenes N.Y.5; test: as above; format: cell-based; settings: read-out: minimum inhibitory concentration, MIC
From the text: as §1

[20] = system: Pseudomonas aeruginosa 1946; test: as above; format: cell-based; settings: read-out: minimum inhibitory concentration, MIC
From the text: as §1

[21] = system: Staphylococcus aureus MS 27; test: as above; format: cell-based; settings: MS27, read-out: minimum inhibitory concentration, MIC
From the text: as §1

[22] = system: Serratia marcescens; test: as above; format: cell-based; settings: read-out: minimum inhibitory concentration, MIC
From the text: as §1

[23] = system: Enterobacter cloacae GN366; test: as above; format: cell-based; settings: read-out: minimum inhibitory concentration, MIC
From the text: as §1

[24] = system: Pseudomonas maltophilia 1850; test: as above; format: cell-based; settings: Stenotrophomonas maltophilia, read-out: minimum inhibitory concentration, MIC
From the text: as §1

[25] = system: Escherichia coli NIHJ-JC2; test: as above; format: cell-based; settings: NIHJJC2, read-out: minimum inhibitory concentration, MIC
From the text: as §1

[26] = system: Salmonella enteritidis Gartner; test: as above; format: cell-based; settings: Salmonella enterica, read-out: minimum inhibitory concentration, MIC
From the text: as §1

[27] = system: Shigella sonnei E33; test: as above; format: cell-based; settings: read-out: minimum inhibitory concentration, MIC
From the text: as §1

[28] = Solubility; format: physicochemical

**Q.** For `CNC1C(O)C(OC2C(N)CC(N)C(OC3OC(CN)=CCC3NC=O)C2O)OCC1(C)O` (stereo not drawn) [G-367-1], which antibacterial effect [1] is on record?
**A.** strong antibacterial effect

**Q.** What about the MIC [2] of the same compound?
**A.** 50 µg/mL (≈ 105 µM)

**Q.** What about the MIC [3] of the same compound?
**A.** 3.1 µg/mL (≈ 6.52 µM)

**Q.** And the MIC [4]?
**A.** > 100 µg/mL

**Q.** What about the MIC [5] of the same compound?
**A.** 1.6 µg/mL (≈ 3.36 µM)

**Q.** What about the MIC [6] of the same compound?
**A.** > 100 µg/mL

**Q.** What about the MIC [7] of the same compound?
**A.** 12.5 µg/mL (≈ 26.3 µM)

**Q.** What about the MIC [8] of the same compound?
**A.** 6.3 µg/mL (≈ 13.2 µM)

**Q.** And the MIC [9]?
**A.** 12.5 µg/mL (≈ 26.3 µM)

**Q.** What about the MIC [10] of the same compound?
**A.** 25 µg/mL (≈ 52.6 µM)

**Q.** And the MIC [11]?
**A.** 1.6 µg/mL (≈ 3.36 µM)

**Q.** What about the MIC [12] of the same compound?
**A.** 25 µg/mL (≈ 52.6 µM)

**Q.** What about the MIC [13] of the same compound?
**A.** 1.6 µg/mL (≈ 3.36 µM)

**Q.** What about the MIC [14] of the same compound?
**A.** > 100 µg/mL

**Q.** And the MIC [15]?
**A.** 1.6 µg/mL (≈ 3.36 µM)

**Q.** And the MIC [16]?
**A.** 0.8 µg/mL (≈ 1.68 µM)

**Q.** What about the MIC [17] of the same compound?
**A.** 1.6 µg/mL (≈ 3.36 µM)

**Q.** What about the MIC [18] of the same compound?
**A.** 3.1 µg/mL (≈ 6.52 µM)

**Q.** And the MIC [19]?
**A.** 6.3 µg/mL (≈ 13.2 µM)

**Q.** And the MIC [20]?
**A.** > 100 µg/mL

**Q.** What about the MIC [21] of the same compound?
**A.** 6.3 µg/mL (≈ 13.2 µM)

**Q.** And the MIC [22]?
**A.** 25 µg/mL (≈ 52.6 µM)

**Q.** And the MIC [23]?
**A.** 1.6 µg/mL (≈ 3.36 µM)

**Q.** What about the MIC [24] of the same compound?
**A.** > 100 µg/mL

**Q.** What about the MIC [25] of the same compound?
**A.** 1.6 µg/mL (≈ 3.36 µM)

**Q.** What about the MIC [26] of the same compound?
**A.** 1.6 µg/mL (≈ 3.36 µM)

**Q.** What about the MIC [27] of the same compound?
**A.** 1.6 µg/mL (≈ 3.36 µM)

**Q.** And the Solubility ([28]; acetone)?
**A.** insoluble

**Q.** And the Solubility ([28]; benzene)?
**A.** insoluble

**Q.** What about the Solubility ([28]; chloroform) of the same compound?
**A.** insoluble

**Q.** And the Solubility ([28]; ethyl acetate)?
**A.** insoluble

**Q.** What about the Solubility ([28]; methanol) of the same compound?
**A.** soluble

**Q.** What about the Solubility ([28]; water) of the same compound?
**A.** soluble
